In patent US12251444B2, “Compositions and methods for delivering an agent to a wound” (priority 2009, dated 2025):

Assays:
[1] = Antibiotic elution from sterilized chitosan sponges in PBS (TDx); assay type: physicochemical; conditions: for effect of a co-loaded antibiotic on release from chitosan sponge: sponges hydrated with 5 mg/ml single or combined antibiotics, 20 ml PBS
Experimental: In a preferred approach adopted for use in the goat wound treatment model described in Example 2, 2.5 grams of chitosan was dissolved in 247.5 ml of 1 (v/v) % blended acid solvent. The mixture contained 75%/25% lactic to acetic acid. This mixture was stirred for 4-6 hours at maximum allowable speed on a stir plate. The chitosan solution was filtered to remove undissolved chitosan. 25 ml of chitosan solution was pipetted into small aluminum weigh dishes ([…]). Each dish was frozen at […] freezer for 1 hour. The frozen samples were then placed into a freeze-dryer and lyophilize for 48 hours. Sponge samples were neutralized in 0.175 M NaOH— solution for ˜30-40 seconds. The sponges were rinsed repeatedly in containers filled with distilled water and pH changes were monitored until the rinsing water was neutral in pH. The re-hydrated sponges were then incubated at −80 C freezer for 1 hour and re-lyophilized for 24-48 hours. The sponges were then sterilized using low-dose gamma irradiation at Wright Medical (25-32 kGy).
Sponges were subjected to elution tests by submerging hydrated sponges into 20 ml of 1× Phosphate Buffered Saline (PBS), kept in a 37° C. incubator for the duration of the study. […] One ml aliquots were taken at 1, 3, 6, 24, 48, and 72 hours. Aliquots were tested for antibiotic concentration using a fluorescence polarization immunoassay technique (TDx, Abbott Labs, Abbott Park, IL).

[2] = Antibiotic elution from sponge fragments retrieved from goats; assay type: physicochemical, goat
Description: Sponge fragments remained in 8 of the 10 goats treated with chitosan sponges.

[3] = Amikacin and vancomycin elution from sterilized chitosan films; assay type: physicochemical; conditions: films soaked in 5 mg/ml antibiotic 2 minutes, 50 ml sterile saline, refreshed
Experimental: Agent elution from chitosan films was also analyzed (FIG. 1C). Sterilized chitosan films were loaded with amikacin and vancomycin. […] The elution was done in 50 ml of sterile saline solution and completely refreshed at each time point. The elution was carried out for 3 days. The values shown in FIG. 1C are expressed in μg/ml.
Elution data from chitosan films is provided at Table 4. […] The elution was done in 50 ml of sterile saline solution and completely refreshed at each time point. The elution was carried out for 3 days. The values shown on the graph are in μg/ml.
In one approach, samples were submerged into 15 ml amikacin solution (5 mg/ml) and allowed to hydrate for 2 minutes. Samples were then subjected to elution tests by submerging the films in 50 ml of 1× Phosphate Buffered Saline (PBS) and agitated in a 37 C incubator for the duration of the study. One ml aliquots were removed at 1, 3, 6, 24, 48, and 72 hours. Aliquots were tested for antibiotic concentration using a fluorescence polarization immunoassay technique (TDxFLx, Abbott Labs, Abbott Park, IL).

[4] = in vivo; conditions: goat
[5] = system: S. aureus (Cowan I strain); experiment: Turbidity assay of film eluates against S. aureus; assay type: cell-based, Staphylococcus aureus; conditions: 48 and 72 hr eluate samples from chitosan films
Experimental: In other studies, antibiotic activity against S. aureus (Cowan I strain) was determined by utilizing the remaining antibiotic elution samples, in triplicate, in a turbidity assay. In this turbidity study, solution clarity after sufficient bacterial incubation with antibiotic eluates indicated bacterial inhibition due to antibiotic activity.
Blanks containing neither S aureus nor eluate samples, positive controls containing S aureus without antibiotic eluates, and negative controls containing both S aureus and high concentration antibiotic standards were mixed and incubated at 37° C. along with the eluate samples. After 24 hours of incubation, the tubes were vortexed and the absorbance at 530 nm of each inoculum solution was recorded using a spectrophotometer.

[6] = system: Pseudomonas aeruginosa; experiment: Turbidity/growth assay of sponge elution samples against Pseudomonas aeruginosa; assay type: cell-based; conditions: eluate of amikacin-loaded 61/71 DDA chitosan sponge
Experimental: To determine whether agents eluted from the sponges could be used to inhibit bacterial growth, zone of inhibition (ZOI) studies were carried out (FIGS. 3A-3D). Chitosan sponges loaded with a single antibiotic or combinations of antibiotics, as above, were analyzed for their ability to inhibit bacterial growth. For the assays to determine inhibition of bacterial growth, the bacterial strains Pseudomonas aeruginosa and Staphylococcus aureus were used. Results showing the inhibition of Pseudomonas aeruginosa and Staphylococcus aureus are shown at Tables 2 and 3, respectively.
Drug activity of the aliquots was tested using a turbidity assay. Two different strains of bacteria were used in this study. Vancomycin samples were tested against Staphylococcus aureus and amikacin samples were tested against both Staphylococcus aureus and Pseudomonas aeruginosa. 200 μl of each aliquot was added to 1.8 ml of Mueller-Hinton II broth combined with 20 μl of S. aureus inoculum. Amikacin samples (200 μl) were also added to 1.75 ml of trypticase soy broth (TSB) and 50 μl of P. aeruginosa inoculum. Samples were incubated for 24 hours at 37 C. Absorbance measurements were recorded after incubation at a wavelength of 530 nm (A530).
Drug activity of the aliquots was tested using a turbidity assay. Samples were tested against Pseudomonas aeruginosa. […] Absorbance measurements at 530 nm on a spectrophotometer (BioTek).

[7] = 5 mg/ml solution (sponge loading)

| SMILES | effect of a co-loaded antibiotic on release from chitosan sponge [1] | elution from sterilized chitosan films ([3]; 1 hour) [µg/mL] | elution from sterilized chitosan films ([3]; 3 hours) [µg/mL] | elution from sterilized chitosan films ([3]; 6 hours) [µg/mL] | elution from sterilized chitosan films ([3]; 24 hours) [µg/mL] | elution from sterilized chitosan films ([3]; 48 hours) [µg/mL] | elution from sterilized chitosan films ([3]; 72 hours) [µg/mL] | inhibition of S. aureus growth by film eluates [5] | also measured |
| --- | --- | --- | --- | --- | --- | --- | --- | --- | --- |
| CN[C@H](CC(C)C)C(=O)N[C@H]1C(=O)N[C@@H](CC(N)=O)C(=O)N[C@H]2C(=O)N[C@H]3C(=O)N[C@H](C(=O)N[C@H](C(=O)O)c4cc(O)cc(O)c4-c4cc3ccc4O)[C@H](O)c3ccc(c(Cl)c3)Oc3cc2cc(c3O[C@@H]2O[C@H](CO)[C@@H](O)[C@H](O)[C@H]2O[C@H]2C[C@](C)(N)[C@H](O)[C@H](C)O2)Oc2ccc(cc2Cl)[C@H]1O [vancomycin] | amikacin did not affect the release of vancomycin | 83.45 ± 17.25 | 19.35 ± 7.98 | 0.58 ± 0.88 | 2.53 ± 0.66 | 9.72 ± 1.92 | 6.13 ± 0.39 | active in inhibiting the growth of S. aureus | 12 hr TDx reading, antibiotic elution from remaining sponge fragments, Mean ([2]; mean of 4 goats, fragments retrieved after 42 hours in vivo, 20 ml sterile saline, 37° C., 12 hours): 3.78 µg/mL/g; concentration at 6 h [4, 7]: 1630 ± 646 ng/mL; concentration at 12 h [4, 7]: 703 ± 348 ng/mL; concentration at 24 h [4, 7]: 845 ± 539 ng/mL; concentration at 36 h [4, 7]: 740 ± 477 ng/mL; concentration at 42 h [4, 7]: 275 ± 70 ng/mL |
| NCC[C@H](O)C(=O)N[C@@H]1C[C@H](N)[C@@H](O[C@H]2O[C@H](CN)[C@@H](O)[C@H](O)[C@H]2O)[C@H](O)[C@H]1O[C@H]1O[C@H](CO)[C@@H](O)[C@H](N)[C@H]1O [amikacin] | vancomycin nor daptomycin affected the release of amikacin | 50.63 ± 4.49 | 2.15 ± 1.13 | 3.17 ± 1.14 | 3.93 ± 0.57 | 4.7 ± 2.49 | 0.6 ± 0.48 | – | Bacterial growth inhibition of P. aeruginosa ([6]; after 72 hours): 93.1%; Bacterial growth inhibition of P. aeruginosa ([6]; after one hour): 98.7%; 12 hr TDx reading, antibiotic elution from remaining sponge fragments, Mean ([2]; goat, 12 h): 0.60 µg/mL/g; concentration at 6 h [4]: 526 ± 478 ng/mL; concentration at 12 h [4]: 200 ng/mL; concentration at 24 h [4]: 200 ng/mL; concentration at 36 h [4]: 200 ng/mL; concentration at 42 h [4]: 200 ng/mL |
| CCCCCCCCCC(=O)N[C@@H](Cc1c[nH]c2ccccc12)C(=O)N[C@H](CC(N)=O)C(=O)N[C@@H](CC(=O)O)C(=O)N[C@@H]1C(=O)NCC(=O)N[C@@H](CCCN)C(=O)N[C@@H](CC(=O)O)C(=O)N[C@H](C)C(=O)N[C@@H](CC(=O)O)C(=O)NCC(=O)N[C@H](CO)C(=O)N[C@@H]([C@H](C)CC(=O)O)C(=O)N[C@@H](CC(=O)c2ccccc2N)C(=O)O[C@@H]1C [daptomycin] | Amikacin did not affect the release of daptomycin | – | – | – | – | – | – | active in inhibiting the growth of S. aureus | release from chitosan sponge compared with the other tested antibiotics ([1]; 72 hour time point, sponges hydrated with 5 mg/ml, one antibiotic per sponge): significantly less than the other two tested antibiotics |
